Results published in patent US20210041466A1, “DIAGNOSTIC METHODS AND KITS” (Cholestenix Limited, priority 2015, published 2021).

Legend:
Smoothened (Smo) = details: from the literature (Myers Dev Cell 2013; Corcoran PNAS 2006; Nachtergaele Nat Chem Bio 2012); cited from earlier work
[1] = test system: Hedgehog signalling (Gli1 mRNA); assay: Hedgehog signalling assay using quantitative RT-PCR (Gli1 mRNA in NIH/3T3 cells); type: cell-based; details: sterol treatment ~16 hours, different concentrations (FIG. 6, 7)
Protocol: NIH/3T3 cells were grown to confluency in Dulbecco's Modified Eagle's Medium (DMEM) containing 10% Fetal Bovine Serum (FBS, Optima Grade, Atlanta Biologicals). Confluent cells were exchanged into 0.5% FBS DMEM for 24 hours to allow ciliogenesis prior to treatment with sterols in DMEM containing 0.5% FBS for ˜16 hours. SHH protein carrying a C-terminal hexa-histidine tag was expressed in bacteria and purified as described previously [Bishop Nat Struct Mol Biol 2009]. The mRNA levels of Gli1, a direct Hh target gene commonly used as a metric for signalling strength, were measured using the Power SYBR Green Cells-To-CT kit (Thermo Fisher Scientific). The primers used are Gli1 (forward primer: 5′-[…]-3′ and reverse primer: 5′-[…]-3′), Gapdh (forward primer: 5′-[…]-3′ and reverse primer: 5′-[…]-3′). Transcript levels relative to Gapdh were calculated using the Δelta-Ct method. Each qRT-PCR experiment, which was repeated twice, included two biological replicates, each with two technical replicates.

CC(C)CCC[C@](C)(O)[C@H]1CC[C@H]2[C@@H]3CC=C4C[C@@H](O)CC[C@]4(C)[C@H]3CC[C@@]21C [20S-Hydroxycholesterol, reference compound]
activation of Smo (Smoothened (Smo)): activate Smo in vitro

C[C@@H](CO)CCC[C@@H](C)[C@H]1CC[C@H]2[C@@H]3C(=O)C=C4C[C@@H](O)CC[C@]4(C)[C@H]3CC[C@]12C [Compound XX, 3β,26-Dihydroxycholest-5-en-7-one]
effect on Hedgehog signalling (mRNA levels of Gli1) [1]: activator of Hedgehog signalling | activation of Smo (Smoothened (Smo)): activators of Smo

C[C@H](CCC(=O)O)[C@H]1CC[C@H]2[C@@H]3C(=O)C=C4C[C@@H](O)CC[C@]4(C)[C@H]3CC[C@]12C [Compound XXI, 3β-Hydroxy-7-oxochol-5-en-24-oic acid]
effect on Hedgehog signalling (mRNA levels of Gli1) [1]: inhibitor of Hedgehog signalling

C[C@H](CCCC(C)(C)O)[C@H]1CC[C@H]2[C@@H]3C(=O)C=C4C[C@@H](O)CC[C@]4(C)[C@H]3CC[C@]12C [Compound XXII, 3β,25-dihydroxycholest-5-en-7-one]
activation of Smo (Smoothened (Smo)): activators of Smo
